In paper PMC6312923 (Life Science Alliance, 2018):

B1: Cdt2^PIP-3A: Cdt2 with I709, Y712, and F713 all mutated to alanine (protein, UniProt Q9NZJ0 1-730, looked up, variant I709A Y712A F713A)
Denticleless protein homolog: MLFNSVLRQPQLGVLRNGWSSQYPLQSLLTGYQCSGNDEHTSYGETGVPVPPFGCTFSSAPNMEHVLAVANEEGFVRLYNTESQSFRKKCFKEWMAHWNAVFDLAWVPGELKLVTAAGDQTAKFWDVKAGELIGTCKGHQCSLKSVAFSKFEKAVFCTGGRDGNIMVWDTRCNKKDGFYRQVNQISGAHNTSDKQTPSKPKKKQNSKGLAPSVDFQQSVTVVLFQDENTLVSAGAVDGIIKVWDLRKNYTAYRQEPIASKSFLYPGSSTRKLGYSSLILDSTGSTLFANCTDDNIYMFNMTGLKTSPVAIFNGHQNSTFYVKSSLSPDDQFLVSGSSDEAAYIWKVSTPWQPPTVLLGHSQEVTSVCWCPSDFTKIATCSDDNTLKIWRLNRGLEEKPGGDKLSTVGWASQKKKESRPGLVTVTSSQSTPAKAPRAKCNPSNSSPSSAACAPSCAGDLPLPSNTPTFSIKTSPAKARSPINRRGSVSSVSPKPPSSFKMSIRNWVTRTPSSSPPITPPASETKIMSPRKALIPVSQKSSQAEACSESRNRVKRRLDSSCLESVKQKCVKSCNCVTELDGQVENLHLDLCCLAGNQEDLSKDSLGPTKSSKIEGAGTSISEPPSPISPYASESCGTLPLPLRPCGEGSEMVGKENSSPENKNWLLAMAAKRKAENPSPRSPSSQTPNSRRQSGKKLPSPVTITPSSMRKACTAAHRKSQEDFCGPEHSTEL
modifications: FLAG tag
notes: Cdt2 with I709, Y712, and F713 all mutated to alanine

Assays:
[1] = test system: MCF7 cells, DNA-damage (CPD) sites; experiment: Recruitment of GFP-Cdt2 constructs to DNA-damage sites in MCF7 cells; type: cell-based, human; details: MCF7, UV-C 50 J/m^2, GFP fusions; two independent experiments
From the text: Figure 2. The C-terminus of Cdt2 mediates Cdt2 recruitment to sites of damage. (A) A schematic drawing of the domain structure of Cdt2 and constructs used. (B) The C-terminal, but not the N-terminal, part of Cdt2 mediates recruitment to DNA damage sites. MCF7 cells transfected with the indicated plasmids were locally UV-C irradiated (50 J/m^2 through 5 μm pore diameter micropore filters), and recruitment of each Cdt2 construct to sites of damage was examined by staining with α-CPD antibody and GFP signal.
For Western blotting, whole-cell lysates were prepared by lysing cell pellets directly in SDS–PAGE buffer. For immunofluorescence, U2OS or HEK293 cells were fixed in 4% paraformaldehyde (PFA; WAKO) for 10 min, permeabilized in 0.25% (vol/vol) Triton X-100 in PBS, and stained with the indicated antibodies as described previously. […] For cyclobutane pyrimidine dimer (CPDs) staining, MCF7 and HeLa cells were fixed in 4% PFA for 10 min, permeabilized in 0.3% Triton X-100 in PBS, and then incubated in 0.5 N NaOH for 5 min for DNA denaturation before immunofluorescence. Alexa488-conjugated anti-mouse and […] anti-rabbit antibodies were used as secondary antibodies with Hoechst 33258 to visualize DNA. […] Protein levels were analysed by ImageJ software.
We used a method to induce DNA photoproducts within localized areas of the cell nucleus as described in Ishii et al (2010). To perform micropore UV irradiation, cells were cultured on cover slips, washed twice with PBS, and subsequently covered with an isopore polycarbonate membrane filter (Millipore) with a pore size of either 3 or 5 μm in diameter, and irradiated. UV irradiation was achieved using a UV lamp (SUV-16, As One, Japan) with a dose rate of 0.4 J/m^2·s, which was monitored with a UV radiometer (UVX Radiometer, UVP) at 254 nm, or with a UV box equipped with a UV-C lamp monitored with a VLX-3W radiometer (Vilber Lourmat) at 254 nm (CX-254 sensor). The filter was removed and cells were either fixed or cultured for the indicated time before fixation, and processed for immunofluorescence. […]

p21 poly-ubiquitination = experiment: Poly-ubiquitination of p21 in HEK293 cells; type: cell-based, human; details: HEK293, MG132 3 h, chromatin fraction
Method: Figure 6. The Cdt2 PIP box is important for its recruitment to DNA damage sites and replication foci and for poly-ubiquitination activity. (A) HEK293 and stable Cdt2^WT or Cdt2^PIP-3A cells were locally UV irradiated, and stained for XPA and FLAG (Cdt2). XPA-positive spots were examined for FLAG signal, and its frequency was counted (%). More than 50 spots were examined. bar:10 μm. […] Bar: 10 μm. […] (D) Whole-cell extracts were prepared from HEK293 and stably transfected cells of Cdt2^WT or Cdt2^PIP-3A cells, separated into soluble (Sup) and chromatin-containing insoluble (Ppt) fractions, and were examined for indicated proteins. The asterisk indicates nonspecific bands. (E) HEK293 and stably transfected cells of Cdt2^WT or Cdt2^PIP-3A were treated with MG132 for 3 h. Whole-cell extracts (WCE) were prepared, separated into soluble (Sup) and insoluble (Ppt) fractions, and blotted with the indicated antibodies.
To consider this possibility, asynchronously growing control HEK293 cells and cells expressing Cdt2^WT or Cdt2^PIP-3A were treated with proteasome inhibitor MG132 and the levels of poly-ubiquitinated Cdt1 were examined. […] Cdt2^PIP-3A-expressing cells however had reduced level of both poly-ubiquitinated Cdt1 and p21 on chromatin.

Molecule	recruitment to DNA-damage sites [1]	poly-ubiquitinated p21 on chromatin (p21 poly-ubiquitination)
Cdt2: Cdt2 tagged with GFP, transiently expressed in MCF7 cells	robustly detected at DNA-damage sites	
B1		reduced level
